Test results from patent US20260216229A1, “PROGRAMMABLE DNA PROTEOLYSIS TARGET CHIMERAS AND METHODS OF THEIR USE” (ARIZONA BOARD OF REGENTS ON BEHALF OF ARIZONA STATE …, priority 2023, published 2026).

Legend:
Format in all cases: cell-based
CDK6 [1] = target: T1, CDK6 (Homo sapiens, UniProt Q00534); test: Western blot of CDK6 degradation in U251 cells transfected with DNA-PROTACs
T1 construct: Western blot analysis of CDK6 degradation in U251 cells treated with distance-based DNA-PROTACs; endogenous in cells; host or cells: U-251 MG (U251) glioblastoma cells
T1 sequence (Q00534 whole entry): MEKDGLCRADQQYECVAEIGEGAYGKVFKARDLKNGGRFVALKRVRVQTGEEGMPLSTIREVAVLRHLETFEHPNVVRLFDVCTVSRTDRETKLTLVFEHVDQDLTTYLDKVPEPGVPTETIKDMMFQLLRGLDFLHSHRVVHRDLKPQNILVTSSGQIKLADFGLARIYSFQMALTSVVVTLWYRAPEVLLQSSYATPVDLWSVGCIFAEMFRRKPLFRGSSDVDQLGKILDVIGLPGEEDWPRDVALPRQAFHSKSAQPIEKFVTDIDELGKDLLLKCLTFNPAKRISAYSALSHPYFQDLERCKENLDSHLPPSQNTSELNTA
Procedure: U-251 MG Glioblastoma Cell Line was grown in Dulbecco's Modified Eagles Medium (DMEM) containing 10% heat inactivated fetal bovine serum (FBS), streptomycin (5 μg/mL) and 5 U/mL penicillin 95 U/mL). All cell lines were maintained, and cell culture experiments were carried out in humidified incubators at 37° C. and 5% CO2 supplementation.
One day prior to DNA-PROTACs transfection, cells were propagated into 6 cm cell culture dishes containing appropriate complete growth medium. Prior to transfection, complete medium was replaced with transfection medium (5% FBS, no Penstrep). DNA-PROTACs transfection was performed using lipofectamine 3000 reagent according to the protocols provided by the manufacture. All transfections were carried out in 6-cm dishes with 3 mL of media and concentrations of DNA-PROTACs were calculated according to this volume (3 mL). Briefly, for 50 nM concentration, 5 μL from a 30 µM DNA-PROTACs stock and 12 μL p3000 reagent was added to a tube containing 125 μL of OPTIM-MEM and 8 μL of Lipofectamine 3000 reagent was added to a separate tube containing 125 μL of OPTIM-MEM. Two tubes were incubated for 5 minutes at room temperature and DNA-PROTACs containing OPTI-MEM was then slowly added to the second tube with lipo3000. The solution in the tube was mixed well by pipetting up and down several times. After incubating for 15-20 minutes at room temperature, 250 μL of DNA-PROTACs-lipofectamine complex was added drop wise onto cells containing the transfection medium. Transfection medium was mixed well before transferring the plate into the incubator. After appropriate time, cells were either harvested or replaced with fresh medium and incubated for desired time point prior to harvesting. For proteasome inhibition assay, 5 μM of MG-132 was incubated with cells for 2 h prior to transfection of DNA-PROTACs. Then, cells were incubated for another 12 h before lysing cells. Cell lysates were prepared by incubating cells in RIPA lysis buffer (25 mM Tris pH 7.6, 150 mM NaCl, 1% NP40, 1% deoxycholate, 0.1% SDS, 1× protease inhibitor cocktail from Roche and 1 mM of PMSF) on ice for 30 minutes and cell lysate was clarified by centrifugation at high speed (15 000 rpm) for 15 minutes. Clear supernatant was collected for further experiments.
Protein concentration in all the cell lysates were measured by BCA protein assay kit and equal amounts from each lysate were mixed with 4×loading dye and boiled for 5 minutes followed by 2 minutes centrifugation prior to loading into SDS-PAGE gel. Next proteins on the SDS-PAGE gel were transferred to a Nitrocellulose membrane by western blotting and the membrane was blocked with 5% milk in TBST (0.05% Tween 20) for 1 h. Primary antibodies (all Abcam antibodies were diluted 1:5000) were prepared in TBST with 2.5% milk and membranes were incubated overnight at 4° C. On the following day, membrane was washes for 15 minutes (Incubate for three times, 5 minutes each) and appropriate secondary antibodies (1:5000) were prepared in TBST and incubated with the membrane for 1 h at room temperature (RT). Membrane was washed for 15 minutes with TBST (incubate for three times, […]) prior to imaging.
The degradation efficiency of various DNA-PROTACs was evaluated through their transfection into U251 cells, conducted simultaneously to ensure uniform experimental conditions. A double-stranded DNA sequence without any ligand was utilized as a negative control, providing a baseline for comparison. Following a 14-hour treatment period, a duration selected based on preliminary time-course studies, the cells were harvested using trypsin digestion. The lysates obtained were then subjected to SDS-PAGE, followed by Western blot analysis to assess protein degradation. […] This finding highlights the efficacy of DNA-PROTAC V02 in targeting and reducing CDK6 protein levels. In comparison, DNA-PROTAC Versions 03 and 04 also facilitated protein degradation, albeit with varying degrees of efficiency. […]

CDK4 = target: T2, CDK4 (Homo sapiens, UniProt P11802); test: Western blot of CDK4 degradation in U251 cells transfected with DNA-PROTACs
T2 construct: Dose- and Time-dependent Degradation of CDK6 and CDK4 in U251 Cells; endogenous in cells; host or cells: U-251 MG (U251) glioblastoma cells
T2 sequence (P11802 whole entry): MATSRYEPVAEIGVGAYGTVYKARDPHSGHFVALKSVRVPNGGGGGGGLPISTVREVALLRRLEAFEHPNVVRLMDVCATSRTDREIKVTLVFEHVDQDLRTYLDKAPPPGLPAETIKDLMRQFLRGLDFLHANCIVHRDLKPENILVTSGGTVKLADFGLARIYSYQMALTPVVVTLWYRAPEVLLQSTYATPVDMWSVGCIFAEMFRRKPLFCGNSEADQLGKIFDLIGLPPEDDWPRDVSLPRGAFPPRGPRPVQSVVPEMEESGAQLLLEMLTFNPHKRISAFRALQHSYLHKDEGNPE
Procedure: One day prior to DNA-PROTACs transfection, cells were propagated into 6 cm cell culture dishes containing appropriate complete growth medium. Prior to transfection, complete medium was replaced with transfection medium (5% FBS, no Penstrep). DNA-PROTACs transfection was performed using lipofectamine 3000 reagent according to the protocols provided by the manufacture. All transfections were carried out in 6-cm dishes with 3 mL of media and concentrations of DNA-PROTACs were calculated according to this volume (3 mL). Briefly, for 50 nM concentration, 5 μL from a 30 µM DNA-PROTACs stock and 12 μL p3000 reagent was added to a tube containing 125 μL of OPTIM-MEM and 8 μL of Lipofectamine 3000 reagent was added to a separate tube containing 125 μL of OPTIM-MEM. […]

CDK6 [2] = target: T1, CDK6; test: Immunofluorescence staining / confocal analysis of CDK6 in U251 cells; conditions: 20 nM and 100 nM, compared to controls dsDNA, dsDNA-CDK6-i, dsDNA-E3-i
Procedure: U-251 MG cells were seeded into 10 mm confocal dishes (Ibidi) and incubated overnight. Subsequently, cells were quickly washed thrice with ice-cold PBS and then fixed with 4% paraformaldehyde for 20 min. After fixation, cells were washed with PBS and permeabilized with 0.1% Triton X-100 at room temperature for 10 min. The samples were then incubated in a blocking solution for 1 h at room temperature, followed by incubation with primary antibody overnight at 4° C. The primary antibody used was mouse CDK6 antibody (Abacm, 1:100). After washing thrice with PBST (PBS with 0.1% Tween 20), the samples were incubated with the secondary antibody in the dark for 1.5 h at room temperature. Cells were washed 3 times in PBST for 5 minutes each then incubated in the appropriate secondary antibodies supplemented CoraLite488-conjugated Goat Anti-Rabbit IgG(H+L) (Proteintech, 1:100) for 3 hrs. The nucleus was counterstained with DAPI (Hoechst 3342, 1 ug/mL) for 20 mins followed by 3 times wash in PBST. Finally, the slides were Imaging by Nikon X confocal.

CDK6 mRNA = test: RT-PCR of CDK6 mRNA expression in U251 cells; conditions: 100 nM, 6 hours
Procedure: (§1) Subsequent RNA isolation and RT-PCR detection enabled a quantitative assessment of CDK6 and CDK4 mRNA expression levels. […] To further corroborate the mechanistic intricacies of DNA-PROTAC-V02, we probed its interaction with the proteasome pathway. […] Following an 8-hour treatment period, cells were collected, and Western blot analysis was conducted.

CDK4 mRNA = test: RT-PCR of CDK4 mRNA expression in U251 cells; conditions: 100 nM, 6 hours
Procedure: as §1

CDK6 [3] = target: T1, CDK6; test: Proteasome inhibition (MG132) assay of CDK6 degradation in U251 cells; conditions: 8-hour treatment
Procedure: One day prior to DNA-PROTACs transfection, cells were propagated into 6 cm cell culture dishes containing appropriate complete growth medium. Prior to transfection, complete medium was replaced with transfection medium (5% FBS, no Penstrep). DNA-PROTACs transfection was performed using lipofectamine 3000 reagent according to the protocols provided by the manufacture. All transfections were carried out in 6-cm dishes with 3 mL of media and concentrations of DNA-PROTACs were calculated according to this volume (3 mL). Briefly, for 50 nM concentration, 5 μL from a 30 µM DNA-PROTACs stock and 12 μL p3000 reagent was added to a tube containing 125 μL of OPTIM-MEM and 8 μL of Lipofectamine 3000 reagent was added to a separate tube containing 125 μL of OPTIM-MEM. Two tubes were incubated for 5 minutes at room temperature and DNA-PROTACs containing OPTI-MEM was then slowly added to the second tube with lipo3000. The solution in the tube was mixed well by pipetting up and down several times. […]
Protein concentration in all the cell lysates were measured by BCA protein assay kit and equal amounts from each lysate were mixed with 4×loading dye and boiled for 5 minutes followed by 2 minutes centrifugation prior to loading into SDS-PAGE gel. […]
Subsequent RNA isolation and RT-PCR detection enabled a quantitative assessment of CDK6 and CDK4 mRNA expression levels. […]

Row | Substance | CDK6 protein degradation (target selectivity, controls) (CDK6 [1]) | CDK4 protein degradation (target selectivity, controls) (CDK4) | CDK6 degradation (CDK6 [1]; 50 nM) | time for which CDK6 degradation was sustained (CDK6 [1]; 50 nM, time course) | CDK6 protein degradation (Western blot) (CDK6 [1]; 14-hour treatment, 50 nM and 100 nM, vs ligand-free dsDNA control) | concentration at which significant CDK6 degradation begins (CDK6 [1]; 14 hours, angular series) [nM] | concentration at which dose-dependent degradation of CDK6 commences (CDK6 [1]; dose series) [nM] | intracellular green fluorescence (CDK6 immunofluorescence) (CDK6 [2]) | CDK6 mRNA levels (RT-PCR) (CDK6 mRNA) | CDK4 mRNA levels (RT-PCR) (CDK4 mRNA) | CDK6 protein (Western blot) without MG132 treatment (CDK6 [3]; 50 nM, no MG132) | CDK6 protein (Western blot) with MG132 pre-treatment (CDK6 [3]; MG132 pre-treatment 1 hour, then 50 nM)
1 | DNA-E3 ligand: control: dsDNA with E3 ligand only (chain 1 CTCCATCTATTCTACGCCA; chain 2 TTCTACGCCA; chain 1: DNA, linkages s2 o13 s3 (s phosphorothioate, o phosphodiester), methylation of C not given here; chain 2: DNA, linkages o6 s3 (s phosphorothioate, o phosphodiester), methylation of C not given here; further chemistry not fully specified) [reference compound] | did not induce notable protein degradation | did not induce notable protein degradation |  |  |  |  |  |  |  |  |  | 
2 | DNA-PROTAC-V02: DNA duplex of E3-i (pomalidomide) strand SEQ ID NO 3 and POI-i (palbociclib) strand SEQ ID NO 4 (chain 1 ACTCCATCTANTTCTACGCCA; chain 2 TGGCGTAGAANTAGATGGAGT; pomalidomide and palbociclib conjugated; modified_base 1 OTHER; Nucleotide with phosphorothioate linkage; modified_base 2 OTHER; modified_base 3 OTHER; misc_difference 11 E3 ligase attached to 3-Dimethoxytrityloxy-2-(3-(fluorenylmethoxycarbonylamino)propanamido)propyl-1-O-(2-cyanoethyl)-(N,N-diisopropyl)-phosphoramidite modified adenosine, cytidine, thymi; m) |  |  | over 80% | up to 48 hours | most pronounced degradation of CDK6 | 20 | 10 | weakened intracellular green fluorescence | does not elicit a decrease in mRNA levels | does not elicit a decrease in mRNA levels | reduction in CDK6 protein | rescue of CDK6 proteins
